These results are taken from US8592581B2, “Trisubstituted purine derivatives” (Cyclacel Limited, priority 2007, dated 2013).

Series [1] has as its target T1, CYP2C19 (Homo sapiens (Human), UniProt P33261). The experiment in a line: Cytochrome P450 substrate identification (Bactosomes) CYP2C19. The conditions noted are these: pH 7.4, 5 μM test compound, up to 45 min, read-out: half life in the presence of CYP2C19. It is filed as in vitro ADME. As for the experimental part: (§1) cDNA expressed human CYP450 enzyme preparations co-expressed with human NADPH cytochrome P450 reductase (Bactosomes™) were supplied by Cypex Ltd. Bactosomes™ (final P450 concentration CYP1A2 100 pmol/mL, CYP2C8 50 pmol/mL, CYP2C9 25 pmol/mL, CYP2C19 100 pmol/mL, CYP2D6 50 pmol/mL and CYP3A4 25 pmol/mL), 0.1M phosphate buffer pH7.4 and test compound (final substrate concentration=5 μM; final DMSO concentration=0.25%) were pre-incubated at 37° C. prior to the addition of NADPH (final concentration=1 mM) to initiate the reaction. Incubations were also performed using control bactosomes (no P450 enzymes present) to reveal any non-enzymatic degradation. The final incubation volume was 25 μL. Compounds known to be metabolised specifically by each CYP450 isoform were used as control compounds.
(§2) Each compound was incubated singly for 0, 5, 15, 30 and 45 min with each CYP isoform. The reactions were stopped by the addition of 50 μL methanol containing internal standard at the appropriate time points. The incubation plates were centrifuged at 2500 rpm for 20 min at 4° C. to precipitate the protein. Following protein precipitation, the sample supernatants were combined in cassettes of up to four compounds and analysed using generic LC-MS/MS conditions.
(§3) The In peak area ratio (which has been corrected for any loss in the incubations with the control bactosomes) was plotted against time and the gradient of the line determined.
(§4) The elimination rate constant (k)=(−gradient)

The target of series [2] is CYP1A (Homo sapiens, UniProt P05177). Nature of the series: CYP1A inhibition, human liver microsomes, ethoxyresorufin. The series is classed as in vitro ADME. As for the experimental part: Six test compound concentrations (0.05, 0.25, 0.5, 2.5, 5, 25 μM in DMSO; final DMSO concentration=0.35%) were incubated with human liver microsomes (0.25 mg/mL) and NADPH (1 mM) in the presence of the probe substrate ethoxyresorufin (0.5 μM) for 5 min at 37° C. The selective CYP1A inhibitor, alpha-naphthoflavone, was screened alongside the test compounds as a positive control.
Chain of CYP1A (P05177 2-516 limits assumed): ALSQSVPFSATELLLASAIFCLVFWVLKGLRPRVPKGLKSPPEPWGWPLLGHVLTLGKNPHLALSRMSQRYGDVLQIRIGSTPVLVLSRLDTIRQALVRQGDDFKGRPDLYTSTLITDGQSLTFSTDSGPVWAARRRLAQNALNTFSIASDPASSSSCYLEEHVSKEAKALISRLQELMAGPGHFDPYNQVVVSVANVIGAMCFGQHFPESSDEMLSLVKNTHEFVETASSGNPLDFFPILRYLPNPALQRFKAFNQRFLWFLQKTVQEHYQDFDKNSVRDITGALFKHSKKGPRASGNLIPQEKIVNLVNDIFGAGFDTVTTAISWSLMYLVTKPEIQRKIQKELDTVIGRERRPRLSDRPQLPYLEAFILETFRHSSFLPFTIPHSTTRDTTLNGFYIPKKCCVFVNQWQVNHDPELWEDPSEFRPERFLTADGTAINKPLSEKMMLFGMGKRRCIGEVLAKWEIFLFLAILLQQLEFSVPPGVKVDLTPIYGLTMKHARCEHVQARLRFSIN
(§5) For the CYP1A incubations, the reactions were terminated by the addition of methanol, and the formation of the metabolite, resorufin, was monitored by fluorescence (excitation wavelength=535 nm, emission wavelength=595 nm). For the CYP2C9, CYP2C19, CYP2D6, and CYP3A4 incubations, the reactions were terminated by the addition of methanol containing internal standard. The samples were then centrifuged, and the supernatants were combined, for the simultaneous analysis of 4-hydroxytolbutamide, 4-hydroxymephenyloin, dextrorphan, and 1-hydroxymidazolam plus internal standard by LC-MS/MS using generic LC-MS/MS conditions. Formic acid in deionised water (final concentration=0.1%) was added to the final sample prior to analysis.
(In general: Microsomes from liver hold many membrane-bound enzymes, among them those of drug oxidation.)

Series [3] concerns the target T2, CYP2C9 (Homo sapiens (Human), UniProt P11712). The experiment in a line: Cytochrome P450 substrate identification (Bactosomes) CYP2C9. The conditions noted are these: pH 7.4, 5 μM test compound, up to 45 min, read-out: half life in the presence of CYP2C9. The series is classed as in vitro ADME. As for the experimental part:
as §1, §2, §3, §4

The target in series [4] is T2, CYP2C9. Nature of the series: CYP2C9 inhibition, human liver microsomes, tolbutamide. It is filed as in vitro ADME. As for the experimental part:
Six test compound concentrations (0.05, 0.25, 0.5, 2.5, 5, 25 μM in DMSO; final DMSO concentration=0.25%) were incubated with human liver microsomes (1 mg/mL) and NADPH (1 mM) in the presence of the probe substrate tolbutamide (120 μM) for 60 min at 37° C. The selective CYP2C9 inhibitor, sulphaphenazole, was screened alongside the test compounds as a positive control.
as §5

In series [5] the target is T3, CYP3A4 (Homo sapiens (Human), UniProt P08684). The experiment in a line: Cytochrome P450 substrate identification (Bactosomes) CYP3A4. It is filed as in vitro ADME. The conditions noted are these: human, pH 7.4; Bactosomes, 5 μM test compound, up to 45 min; read-out: half life in the presence of CYP3A4. As for the experimental part:
as §1, §2, §3, §4

For series [6], the target named is CYP2C8 (Homo sapiens (Human), UniProt P10632). Nature of the series: Cytochrome P450 substrate identification (Bactosomes) CYP2C8. Conditions: pH 7.4, 5 μM test compound, up to 45 min, read-out: half life in the presence of CYP2C8. The series is classed as in vitro ADME. As for the experimental part:
as §1, §2, §3, §4

Series [7] concerns the target T4, CYP2D6 (Homo sapiens (Human), UniProt P10635). The experiment in a line: CYP2D6 inhibition, human liver microsomes, dextromethorphan. It is filed as in vitro ADME. As for the experimental part: Six test compound concentrations (0.05, 0.25, 0.5, 2.5, 5, 25 μM in DMSO; final DMSO concentration=0.25%) were incubated with human liver microsomes (0.5 mg/mL) and NADPH (1 mM) in the presence of the probe substrate dextromethorphan (5 μM) for 30 min at 37° C. The selective CYP2D6 inhibitor, quinidine, was screened alongside the test compounds as a positive control.
as §5

The target in series [8] is T4, CYP2D6. Nature of the series: Cytochrome P450 substrate identification (Bactosomes) CYP2D6. The series is classed as in vitro ADME. Conditions: pH 7.4, 5 μM test compound, up to 45 min, read-out: half life in the presence of CYP2D6. As for the experimental part:
as §1, §2, §3, §4

For series [9], the target named is T1, CYP2C19. Nature of the series: CYP2C19 inhibition, human liver microsomes, mephenyloin. The series is classed as in vitro ADME. As for the experimental part: Six test compound concentrations (0.05, 0.25, 0.5, 2.5, 5, 25 μM in DMSO; final DMSO concentration=0.25%) were incubated with human liver microsomes (0.5 mg/mL) and NADPH (1 mM) in the presence of the probe substrate mephenyloin (25 μM) for 60 min at 37° C. The selective CYP2C19 inhibitor, tranylcypromine, was screened alongside the test compounds as a positive control.
as §5

Series [10] concerns the target T3, CYP3A4. The experiment in a line: CYP3A4 inhibition, human liver microsomes, midazolam. The series is classed as in vitro ADME. Conditions: human liver microsomes. As for the experimental part: Six test compound concentrations (0.05, 0.25, 0.5, 2.5, 5, 25 μM in DMSO; final DMSO concentration 0.26%) were incubated with human liver microsomes (0.25 mg/mL) and NADPH (1 mM) in the presence of the probe substrate midazolam (2.5 μM) for 5 min at 37° C. The selective CYP3A4 inhibitor, ketoconazole, was screened alongside the test compounds as a positive control.
as §5

For series [11], the system named is Mcl-1. The experiment in a line: Mcl-1 downregulation in H460 cells by Western blotting. The series is classed as cell-based. Conditions: H460 cells, 24 hours, top concentration close to IC50. As for the experimental part:
The media was removed and the adherent cells washed with 5 ml PBS. […] Proteins were transferred to nitrocellulose membranes (Schleicher & Schuell, Dassel, Germany) using wet electrophoretic transfer. Membranes were stained with Ponceau S to confirm equal loading before blocking in 5% nonfat milk in PBS with 0.05% Tween 20 (PBSTM) for 2 hours. Membranes were incubated overnight at 4° C. with primary antibody (rabbit polyclonal antibody to Mcl-1, Santa Cruz), diluted 1:1000 in PBSTM. Membranes were washed 2×5 minute followed by 2×10 minute in PBS and 0.05% Tween 20 (PBST) and incubated for 1 hour in PBSTM containing horseradish peroxidase-conjugated secondary antibody. Membranes were washed as before and incubated with enhanced chemiluminescence solution (Amersham) and exposed to X-ray film (Amersham).
In a second experiment the effect of additional compounds on Mcl-1 levels was investigated.
A general note: A western blot detects proteins with antibodies after separation by electrophoresis.

T2 sequence (P11712 whole entry): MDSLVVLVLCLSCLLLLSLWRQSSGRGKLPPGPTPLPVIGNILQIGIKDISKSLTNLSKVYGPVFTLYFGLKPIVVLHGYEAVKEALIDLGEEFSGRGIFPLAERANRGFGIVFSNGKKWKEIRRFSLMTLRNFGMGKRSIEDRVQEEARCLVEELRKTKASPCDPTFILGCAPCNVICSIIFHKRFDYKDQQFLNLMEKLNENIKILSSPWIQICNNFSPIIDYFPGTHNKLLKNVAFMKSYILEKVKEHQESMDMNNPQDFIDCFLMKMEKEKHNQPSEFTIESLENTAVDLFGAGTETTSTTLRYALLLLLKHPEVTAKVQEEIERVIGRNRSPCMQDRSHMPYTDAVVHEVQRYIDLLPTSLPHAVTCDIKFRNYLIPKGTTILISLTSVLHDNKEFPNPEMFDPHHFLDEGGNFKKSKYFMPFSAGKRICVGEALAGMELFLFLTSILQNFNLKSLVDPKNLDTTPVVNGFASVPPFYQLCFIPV
T1 sequence (P33261 whole entry): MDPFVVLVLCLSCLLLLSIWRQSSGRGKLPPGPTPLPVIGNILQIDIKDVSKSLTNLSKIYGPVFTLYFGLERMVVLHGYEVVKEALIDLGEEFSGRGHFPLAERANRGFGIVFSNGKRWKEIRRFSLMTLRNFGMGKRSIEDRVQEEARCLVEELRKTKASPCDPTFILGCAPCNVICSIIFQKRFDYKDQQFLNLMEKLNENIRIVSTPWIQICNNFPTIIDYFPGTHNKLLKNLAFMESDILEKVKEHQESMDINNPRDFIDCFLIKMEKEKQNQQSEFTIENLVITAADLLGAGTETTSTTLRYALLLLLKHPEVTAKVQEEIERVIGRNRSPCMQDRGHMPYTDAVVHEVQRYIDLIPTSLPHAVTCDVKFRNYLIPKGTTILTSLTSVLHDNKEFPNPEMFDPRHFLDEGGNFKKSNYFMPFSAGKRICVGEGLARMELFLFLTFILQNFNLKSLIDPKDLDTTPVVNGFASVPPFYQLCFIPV
Chain of CYP2C8 (P10632 whole entry): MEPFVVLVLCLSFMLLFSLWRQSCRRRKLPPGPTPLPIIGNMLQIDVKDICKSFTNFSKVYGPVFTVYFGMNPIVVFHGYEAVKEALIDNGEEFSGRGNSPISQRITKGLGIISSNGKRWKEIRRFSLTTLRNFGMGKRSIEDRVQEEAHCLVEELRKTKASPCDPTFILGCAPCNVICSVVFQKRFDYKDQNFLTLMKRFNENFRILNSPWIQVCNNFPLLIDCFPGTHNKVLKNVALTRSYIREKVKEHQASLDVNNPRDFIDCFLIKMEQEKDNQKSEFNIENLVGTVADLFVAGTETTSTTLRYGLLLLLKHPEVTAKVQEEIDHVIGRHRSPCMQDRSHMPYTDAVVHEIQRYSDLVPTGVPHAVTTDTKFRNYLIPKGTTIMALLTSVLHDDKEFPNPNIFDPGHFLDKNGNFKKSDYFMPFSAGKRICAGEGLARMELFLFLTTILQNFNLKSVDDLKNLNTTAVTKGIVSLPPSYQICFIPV
T3 sequence (P08684 whole entry): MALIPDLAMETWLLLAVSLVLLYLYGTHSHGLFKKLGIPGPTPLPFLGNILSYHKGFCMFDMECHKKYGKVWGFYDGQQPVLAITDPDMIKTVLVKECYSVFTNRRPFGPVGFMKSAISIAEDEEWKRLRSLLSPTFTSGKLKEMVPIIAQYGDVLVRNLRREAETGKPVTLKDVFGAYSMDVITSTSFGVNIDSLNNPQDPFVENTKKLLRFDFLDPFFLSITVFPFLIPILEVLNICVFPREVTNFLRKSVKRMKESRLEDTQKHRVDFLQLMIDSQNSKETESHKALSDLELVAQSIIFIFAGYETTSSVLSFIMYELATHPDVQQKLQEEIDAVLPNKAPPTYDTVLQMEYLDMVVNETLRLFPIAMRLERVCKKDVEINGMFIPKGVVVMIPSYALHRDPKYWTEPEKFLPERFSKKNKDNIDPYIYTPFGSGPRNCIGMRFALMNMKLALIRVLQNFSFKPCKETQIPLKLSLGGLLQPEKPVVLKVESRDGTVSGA
T4 sequence (P10635 whole entry): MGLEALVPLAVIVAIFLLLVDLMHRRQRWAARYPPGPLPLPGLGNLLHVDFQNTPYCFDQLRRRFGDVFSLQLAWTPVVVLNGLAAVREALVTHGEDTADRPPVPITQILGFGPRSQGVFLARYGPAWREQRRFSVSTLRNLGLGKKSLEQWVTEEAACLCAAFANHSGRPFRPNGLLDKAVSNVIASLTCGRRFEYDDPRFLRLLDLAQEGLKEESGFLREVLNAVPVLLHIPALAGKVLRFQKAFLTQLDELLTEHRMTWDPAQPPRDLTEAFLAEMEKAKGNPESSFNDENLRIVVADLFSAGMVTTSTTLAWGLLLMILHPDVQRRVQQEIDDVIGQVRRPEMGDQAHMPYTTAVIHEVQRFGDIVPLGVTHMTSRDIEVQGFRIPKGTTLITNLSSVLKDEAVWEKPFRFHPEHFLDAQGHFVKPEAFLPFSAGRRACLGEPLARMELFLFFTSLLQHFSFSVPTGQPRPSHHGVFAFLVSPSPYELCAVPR

On to `CC[C@@H](Nc1nc(NCc2cccnc2)c2ncn(C(C)C)c2n1)C(C)(C)O` [Compound [A1]], for which the half-life at 5 μM was 58.3 min in [1]; > 45 min in series [3]; 28.3 min in series [5]; > 45 min in [6]; > 45 min in series [8]. Also, in series [2], the IC50 at 5 min is > 25 µM. The IC50 is > 25 µM in [4], > 25 µM in [7], 19.9 µM in [9] and 1.63 µM in series [10].
`CC[C@H](CO)Nc1nc(NCc2ccccc2)c2ncn(C(C)C)c2n1` [Seliciclib, seliciclib, reference compound]: the “changes in Mcl-1 levels (in words)” value in series [11] is given as “very modest changes”.
As for `CC[C@H](Nc1nc(NCc2cccnc2)c2ncn(C(C)C)c2n1)C(C)(C)O` [[A2]], the half-life at 5 μM in series [1] was > 45 min; in [3], > 45 min; in series [5], 32.6 min; in [6], > 45 min; in series [8] it was > 45 min. Also, the IC50 at 5 min in series [2] was > 25 µM. Further, the IC50 in [4] was > 25 µM; in [7], > 25 µM; in series [9], > 25 µM; in [10] it was 0.48 µM.
On to `CC[C@H](Nc1nc(NCc2cccnc2)c2ncn(C(C)C)c2n1)[C@@H](C)O` [[A3]], for which the half-life at 5 μM was > 45 min in series [1]; > 45 min in series [3]; 18 min in [5]; > 45 min in series [6]; > 45 min in series [8]. Further, the IC50 at 5 min in series [2] was > 25 µM. In addition, the IC50 in series [4] was > 25 µM; in series [7], > 25 µM; in [9], > 25 µM; in series [10], 1.88 µM.

As usually defined, the half-life is the time in which the quantity being followed falls by half. What is called IC50 is the point on the concentration scale where inhibition reaches its midpoint. Read a high IC50 as weaker potency in that assay.
